# Molecular target: MAPK14 (human) (UniProt Q16539)
# Experiment: Inhibition of MAPK14 Kinase Activity
# Sequence of MAPK14 (human) (Q16539 whole entry, looked up): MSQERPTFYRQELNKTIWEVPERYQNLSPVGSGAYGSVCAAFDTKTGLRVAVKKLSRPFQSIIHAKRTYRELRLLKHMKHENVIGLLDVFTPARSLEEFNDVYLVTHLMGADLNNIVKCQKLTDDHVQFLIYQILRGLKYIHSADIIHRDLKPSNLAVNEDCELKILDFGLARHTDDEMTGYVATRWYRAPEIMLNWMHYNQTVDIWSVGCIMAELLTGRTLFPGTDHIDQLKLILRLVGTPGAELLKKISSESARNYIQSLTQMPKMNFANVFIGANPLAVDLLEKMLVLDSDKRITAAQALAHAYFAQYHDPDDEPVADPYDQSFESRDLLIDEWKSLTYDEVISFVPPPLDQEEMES
row,IC50,Structure (SMILES)
1,> 20 µM,CC(C)(C)NS(=O)(=O)c1ccc(-c2cnc3cccc(Nc4ccccn4)c3c2)cc1
2,> 20 µM,CS(=O)(=O)Nc1ccc(-c2cnc3cccc(-c4ccncc4)c3c2)cc1
3,> 20 µM,CS(=O)(=O)Nc1ccc(-c2cnc3cccc(Nc4ccc(Cl)cn4)c3c2)cc1
4,> 20 µM,c1ccc(-c2cnc3ccc4ccncc4c3c2)cc1
5,> 20 µM,CS(=O)(=O)Nc1ccc(-c2cnc3cccc(Nc4ccccn4)c3c2)cc1
6,> 20 µM,CS(=O)(=O)N(c1ccc(-c2cnc3ccc4ccncc4c3c2)cc1)S(C)(=O)=O
7,> 20 µM,CS(=O)(=O)Nc1ccc(-c2cnc3ccc4ccncc4c3c2)cc1
8,> 20 µM,CS(=O)(=O)Nc1ccc(-c2cnc3cccc(Nc4ncccn4)c3c2)cc1
9,> 20 µM,Nc1ccc(-c2cnc3ccc4ccncc4c3c2)cc1
10,> 20 µM,Oc1ccc(-c2cnc3ccc4ccncc4c3c2)cc1
11,> 20 µM,CC(C)(C)NS(=O)(=O)c1ccc(-c2cnc3cccc(Nc4ccc(Cl)cn4)c3c2)cc1
12,> 20 µM,CS(=O)(=O)Nc1ccc(-c2cnc3cccc(-c4cccnc4)c3c2)cc1
13,> 20 µM,CC(=O)Nc1ccc(-c2cnc3ccc4ccncc4c3c2)cc1
